How the values were obtained:
[1] = target: T1, DLK (Homo sapiens, UniProt Q12852); assay: DLK biochemical assay (TR-FRET, MKK7 phosphorylation); conditions: DLK catalytic domain, MKK7 substrate, 60 μM ATP
T1 construct: 10 nM DLK, catalytic domain, Carna Biosiences; purchased Carna Biosciences ('Carna Biosiences' [sic])
T1 sequence (Q12852 125-366 limits assumed): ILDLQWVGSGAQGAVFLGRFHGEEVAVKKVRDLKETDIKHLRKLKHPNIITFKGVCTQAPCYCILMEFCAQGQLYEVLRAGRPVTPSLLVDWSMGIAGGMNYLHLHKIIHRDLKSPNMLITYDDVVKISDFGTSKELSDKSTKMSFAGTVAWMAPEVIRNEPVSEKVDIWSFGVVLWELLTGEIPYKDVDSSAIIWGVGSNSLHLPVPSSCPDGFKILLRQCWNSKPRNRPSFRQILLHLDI
Procedure, shortened: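 Human DLK activity measured as phosphorylation of His-tagged MKK7 at T275/S277, detected by TR-FRET between Eu-anti-phospho-MKK7 donor (excitation 340 nm) and XL665-anti-His acceptor (665 nm). Signal taken as the XL665/Eu ratio. Detection buffer: 25 mM Tris/HCl pH 7.5, 100 mM EDTA, 100 mM NaCl, 200 mM KF, 0.01% Tween 20.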

[2] = target: T2, LZK (Homo sapiens, UniProt O43283); assay: LZK biochemical assay (TR-FRET, MKK7 phosphorylation); conditions: LZK catalytic domain, MKK7 substrate, 15 μM ATP
T2 construct: 10 nM LZK, catalytic domain, Carna Biosiences in assay buffer; purchased Carna Biosciences ('Carna Biosiences' [sic])
T2 sequence (O43283 168-409 limits assumed): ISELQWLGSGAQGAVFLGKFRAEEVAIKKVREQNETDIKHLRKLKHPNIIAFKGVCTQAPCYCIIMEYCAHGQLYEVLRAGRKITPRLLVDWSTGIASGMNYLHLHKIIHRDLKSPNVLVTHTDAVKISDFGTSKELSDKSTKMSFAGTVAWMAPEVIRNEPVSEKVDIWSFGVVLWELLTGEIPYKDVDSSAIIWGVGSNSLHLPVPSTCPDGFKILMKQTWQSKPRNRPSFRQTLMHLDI

IC50 [1] [nM]	IC50 [2] [nM]	SMILES
1.7	13	CC[C@@H](c1ccc(F)cc1)n1cc(-c2cc(C(=O)NC(C)CF)n3nc(N)nc3c2)cn1 (single isomer, unassigned) [Example I-149, 2-Amino-7-{1-[(15)-1-(4-fluorophenyl)propyl]-1H-pyrazol-4-yl}-N-(1-fluoropropan-2-yl)[1,2,4]triazolo[1,5-a]pyridine-5-carboxamide]
6.5	60	CC[C@@H](c1ccc(F)cc1)n1cc(-c2cc(C(=O)NC(C)CF)n3nc(N)nc3c2)cn1 (single isomer, unassigned) [Example I-150, 2-Amino-7-{1-[(15)-1-(4-fluorophenyl)propyl]-1H-pyrazol-4-yl}-N-(1-fluoropropan-2-yl)[1,2,4]triazolo[1,5-a]pyridine-5-carboxamide]
0.7	3.9	CCC(c1ccc(C(F)(F)F)nc1)n1cc(-c2cc(C(=O)N[C@@H](C)CO)c3nc(N)nn3c2)cn1 (single isomer, unassigned) [Example I-152]
6.2	29	CCC(c1ccc(C(F)(F)F)nc1)n1cc(-c2cc(C(=O)N[C@@H](C)CO)c3nc(N)nn3c2)cn1 (single isomer, unassigned) [Example I-153, 2-Amino-N-[(25)-1-hydroxypropan-2-yl]-6-(1-{1-[6-(trifluoromethyl)pyridin-3-yl]propyl}-1H-pyrazol-4-yl)[1,2,4]triazolo[1,5-a]pyridine-8-carboxamide]
0.7	3.9	C[C@@H](CO)NC(=O)c1cc(-c2cnn([C@H](c3ccc(C(F)(F)F)nc3)C3CCOCC3)c2)cn2nc(N)nc12 (single isomer, unassigned) [Example I-155, 2-Amino-N-[(25)-1-hydroxypropan-2-yl]-6-(1-{tetrahydro-2H-pyran-4-yl[6-(trifluoromethyl)pyridin-3-yl]methyl}-1H-pyrazol-4-yl)[1,2,4]triazolo[1,5-a]pyridine-8-carboxamide]
13	23	C[C@@H](CO)NC(=O)c1cc(-c2cnn(C(c3ccc(C(F)(F)F)nc3)C3CCOCC3)c2)cn2nc(N)nc12 (single isomer, unassigned) [Example I-156, 2-Amino-N-[(25)-1-hydroxypropan-2-yl]-6-(1-{tetrahydro-2H-pyran-4-yl[6-(trifluoromethyl)pyridin-3-yl]methyl}-1H-pyrazol-4-yl)[1,2,4]triazolo[1,5-a]pyridine-8-carboxamide]
0.6	3.4	CC[C@@H](c1ccc(OC(F)(F)F)nc1)n1cc(-c2cc(C(=O)N[C@@H](C)CO)c3nc(N)nn3c2)cn1 (single isomer, unassigned) [Example I-158, 2-Amino-N-[(25)-1-hydroxypropan-2-yl]-6-(1-{1-[6-(trifluoromethoxy)pyridin-3-yl]propyl}-1H-pyrazol-4-yl)[1,2,4]triazolo[1,5-a]pyridine-8-carboxamide]
6.7	30	CCC(c1ccc(OC(F)(F)F)nc1)n1cc(-c2cc(C(=O)N[C@@H](C)CO)c3nc(N)nn3c2)cn1 (single isomer, unassigned) [Example I-159]
51	540	CC(C)C(c1ccc(F)cc1)n1cc(-c2cc(C(=O)N[C@@H](C)CO)c3nc(N)nn3c2)cn1 (single isomer, unassigned) [Example I-161]
1.3	83	CC(C)[C@@H](c1ccc(F)cc1)n1cc(-c2cc(C(=O)N[C@@H](C)CO)c3nc(N)nn3c2)cn1 (single isomer, unassigned) [Example I-162]
6.3	52	CC[C@@H](c1ccc(C(F)(F)F)nc1)n1cc(-c2cc(C(=O)NC(C)(C)CO)c3nc(N)nn3c2)cn1 (single isomer, unassigned) [Example I-164, 2-Amino-N-(1-hydroxy-2-methylpropan-2-yl)-6-(1-{1-[6-(trifluoromethyl)pyridin-3-yl]propyl}-1H-pyrazol-4-yl)[1,2,4]triazolo[1,5-a]pyridine-8-carboxamide]
64	190	CCC(c1ccc(C(F)(F)F)nc1)n1cc(-c2cc(C(=O)NC(C)(C)CO)c3nc(N)nn3c2)cn1 (single isomer, unassigned) [Example I-165, 2-Amino-N-(1-hydroxy-2-methylpropan-2-yl)-6-(1-{1-[6-(trifluoromethyl)pyridin-3-yl]propyl}-1H-pyrazol-4-yl)[1,2,4]triazolo[1,5-a]pyridine-8-carboxamide]
22	85	CC(C)(CO)NC(=O)c1cc(-c2cnn(C(c3ccc(C(F)(F)F)nc3)C3CCOCC3)c2)cn2nc(N)nc12 (single isomer, unassigned) [Example I-167, 2-Amino-N-(1-hydroxy-2-methylpropan-2-yl)-6-(1-{tetrahydro-2H-pyran-4-yl[6-(trifluoromethyl)pyridin-3-yl]methyl}-1H-pyrazol-4-yl)[1,2,4]triazolo[1,5-a]pyridine-8-carboxamide]
1.5	8.9	CC(C)(CO)NC(=O)c1cc(-c2cnn(C(c3ccc(C(F)(F)F)nc3)C3CCOCC3)c2)cn2nc(N)nc12 (single isomer, unassigned) [Example I-168, 2-Amino-N-(1-hydroxy-2-methylpropan-2-yl)-6-(1-{tetrahydro-2H-pyran-4-yl[6-(trifluoromethyl)pyridin-3-yl]methyl}-1H-pyrazol-4-yl)[1,2,4]triazolo[1,5-a]pyridine-8-carboxamide]
5.5	18	CC[C@@H](c1ccc(OC(F)(F)F)nc1)n1cc(-c2cc(C(=O)NC(C)(C)CO)c3nc(N)nn3c2)cn1 (single isomer, unassigned) [Example I-170, 2-Amino-N-(1-hydroxy-2-methylpropan-2-yl)-6-(1-{1-[6-(trifluoromethoxy)pyridin-3-yl]propyl}-1H-pyrazol-4-yl)[1,2,4]triazolo[1,5-a]pyridine-8-carboxamide]
85	150	CCC(c1ccc(OC(F)(F)F)nc1)n1cc(-c2cc(C(=O)NC(C)(C)CO)c3nc(N)nn3c2)cn1 (single isomer, unassigned) [Example I-171, 2-Amino-N-(1-hydroxy-2-methylpropan-2-yl)-6-(1-{1-[6-(trifluoromethoxy)pyridin-3-yl]propyl}-1H-pyrazol-4-yl)[1,2,4]triazolo[1,5-a]pyridine-8-carboxamide]
2	49	CC(C)C(c1cncc(Cl)c1)n1cc(-c2cc(C(=O)NC(C)(C)CO)c3nc(N)nn3c2)cn1 (single isomer, unassigned) [Example I-173, 2-Amino-6-{1-[1-(5-chloropyridin-3-yl)-2-methylpropyl]-1H-pyrazol-4-yl}-N-(1-hydroxy-2-methylpropan-2-yl)[1,2,4]triazolo[1,5-a]pyridine-8-carboxamide]
62	690	CC(C)C(c1cncc(Cl)c1)n1cc(-c2cc(C(=O)NC(C)(C)CO)c3nc(N)nn3c2)cn1 (single isomer, unassigned) [Example I-174, 2-Amino-6-{1-[1-(5-chloropyridin-3-yl)-2-methylpropyl]-1H-pyrazol-4-yl}-N-(1-hydroxy-2-methylpropan-2-yl)[1,2,4]triazolo[1,5-a]pyridine-8-carboxamide]
3.8	150	Nc1nc2c(C(=O)N[C@H]3CCOC3)cc(-c3cnn(Cc4cccc5cn[nH]c45)c3)cn2n1 (single isomer, unassigned) [Example I-175]

— patent publication US20230086702A1, “SUBSTITUTED 2-AMINO-PYRAZOLYL-[1,2,4]TRIAZOLO[1,5A]PYRIDINE DERIVATIVES AND USE THEREOF” (The Johns Hopkins University, priority 2019, published 2023)
